Results from patent US20030040510A1, “Selective estrogen receptor modulators in combination with estrogens” (Endorecherche, Inc., priority 2000, published 2003).

Columns and labels:
[1] = test system: ovariectomized rats supplemented with 17β-estradiol; experiment: EM-652.HCl with oral 17β-estradiol for 2 weeks in OVX rats: uterus, endometrial epithelium, vagina, serum cholesterol (Example 10); assay type: in vivo, Sprague-Dawley rats; conditions: for Reversal of the effect of E2 on uterine weight: 2 weeks
Procedure: Ten to twelve week-old female Sprague-Dawley rats (Crl:CD(SD)Br) (Charles River Laboratory, St-Constant, Canada) weighing 215-265 g at time of ovariectomy were used. The animals were housed individually in an environmentally-controlled room (temperature: 22±3° C.; humidity: 50±20%; 12-h light-12-h dark cycles, lights on at 07:15 h). The animals were allowed free access to tap water and a certified rodent feed (Lab Diet 5002 (pellet), Ralston Purina, St-Louis, Mo.). The experiment was conducted in an animal facility approved by the Canadian Council on Animal Care (CCAC) and the Association for Assessment and Accreditation of Laboratory Animal Care (AAALAC) in accordance with the CCAC Guide for Care and Use of Experimental Animals.
On the first day of the study, the animals of the appropriate groups were bilaterally ovariectomized (OVX) under isoflurane anesthesia. The tested compounds were then given once daily by oral gavage as a suspension in 0.4% methylcellulose (0.5 ml/rat) from day 1 to day 14 of the study. Animals of groups 1 and 2 received the vehicle alone during the same time period. On day 15 of the study, 4 animals per group were perfused with 10% buffered formalin and tissues were processed for histological examination. The other animals were killed by exsanguination at the abdominal aorta under isoflurane anesthesia. The uterus and vagina were removed, stripped of remaining fat and weighed. A specimen from each uterus was fixed in 10% buffered formalin for determination of the height of endometrial epithelial cells using a computerized-assisted program (Software Image-Pro Plus).
Total cholesterol was measured on serum samples collected from overnight fasted animals using a Boehringer Mannheim Diagnostic Hitachi 911 Analyzer (Boehringer Mannheim Diagnostic Laboratory Systems).

[2] = test system: uterus and vagina of ovariectomized mice; experiment: Uterine and vaginal weight in ovariectomized mice treated or not with estrone (9 days oral); assay type: in vivo, BALB/c mice; conditions: for Inhibition of estrone-stimulated uterine weight / Inhibition of estrone-stimulated vaginal weight: 9 days, OVX mice + E1
Procedure: (St-Constant, Quebec, Canada) and housed 5 per cage in a temperature (23±1° C.)—and light (12 h light/day, lights on at 7:15)—controlled environment. The mice were fed rodent chow and tap water ad libitum. […] Ten mice were kept intact as controls. […] Compounds were dissolved in ethanol (4% final concentration) and administered in 0.4% methylcellulose. Mice in the intact and OVX control groups received the vehicle alone (4% ETOH-0.4% methylcellulose) during the 9-day period. The animals were killed by exsanguination at the abdominal aorta on the 11th morning following ovariectomy.

[3] = test system: ovariectomized female rats; experiment: Prevention of bone loss, body fat, serum cholesterol and ALP, 26-week treatment of OVX rats (Example 5A, experiment 2); assay type: in vivo, Sprague-Dawley rats; conditions: OVX rats, 26 weeks
Procedure: Ten to twelve week-old female Sprague-Dawley rats (Crl:CD(SD)Br) (Charles River Laboratory, St-Constant, Canada) weighing approximately 220-270 g at start of treatment were used. The animals were acclimatized to the environmental conditions (temperature: 22±3° C.; humidity: 50±20%; 12-h light-12-h dark cycles, lights on at 07:15 h) for at least 1 week before starting the experiments. The animals were housed individually and were allowed free access to tap water and a pelleted certified rodent feed (Lab Diet 5002, Ralston Purina, St-Louis, Mo.). Experiments were conducted in an animal facility approved by the Canadian Council on Animal Care (CCAC) and the Association for Assessment and Accreditation of Laboratory Animal Care (AAALAC) in accordance with the CCAC Guide for Care and Use of Experimental Animals.
On day 1 of the study, the animals of the appropriate groups were bilaterally OVX under isoflurane anesthesia. Tested compounds were administered as suspension in 0.4% methylcellulose by oral gavage. Treatments were initiated on day 2 of the study and were performed once daily during 26 weeks. In both experiments, animals not receiving a test article were treated with the appropriate vehicle alone during the same period.
After 3 months (experiment 1) or 26 weeks (experiment 2) of treatment, individual rats under Isoflurane anesthesia had their whole body skeleton and lumbar spine scanned using dual energy x-ray absorptiometry (DEXA; QDR 4500A, Hologic, Waltham, Mass.) and a Regional High Resolution Scan software. The bone mineral density (BMD) of the lumbar spine (vertebrae L2 to L4) and the total body composition (fat percentage) were determined.
After 3 months (experiment 1) or 26 weeks (experiment 2) of treatment, blood samples were collected at the jugular vein from overnight fasted animals (under Isoflurane anesthesia). Samples were processed for serum preparation and frozen at −80° C. until assay. Serum cholesterol levels and alkaline phospatase activity (ALP) were determined using the Boehringer Mannheim Diagnostic Hitachi 911 Analyzer (Boehringer Mannheim Diagnostic Laboratory Systems).

Solid state stability = assay type: physicochemical
Source text: In administering either EM-800 or EM-1538, it is believed to result in the same active compound in vivo.

[4] = EM-652.HCl 3 mg/kg + E2 2 mg/kg
[5] = EM-652.HCl 10 mg/kg + E2 2 mg/kg
[6] = alone, absence of estrone, both doses used

With CC1=C(c2ccc(O)cc2)[C@H](c2ccc(OCCN3CCCCC3)cc2)Oc2cc(O)ccc21.Cl [EM-652.HCl, (S)-(+)-7-hydroxy-3-(4′-hydroxyphenyl)-4-methyl-2-(4″-(2′″-piperidinoethoxy)phenyl)-2H-1-benzopyran hydrochloride] as the molecule, how does the “Effect on the inhibitory action of E2 on serum cholesterol” value ([1]; EM-652.HCl 0.01 mg/kg to 0.3 mg/kg) read?
The value was “no statistically significant effect”.

And the “Reduction of the effect of E2 on serum cholesterol” value (shortened to “Reduction of the effect of E2”) ([1]; EM-652.HCl 1.0 mg/kg)?
The value was 36%.

What about the “Reduction of the effect of E2” value ([1]; EM-652.HCl 3.0 mg/kg) of the same molecule?
Its value is 30%.

And the “Prevention of E2-stimulated endometrial epithelial height” value [1, 4]?
The value was 83%.

And the “Reversal of the effect of E2 on uterine weight” value [1, 4]?
The value was 84%.

And the “Inhibition of the stimulatory effect of E2 on vaginal weight” value ([1]; EM-652.HCl 3 mg/kg, statistically non significant)?
The value was 50%.

And the “Effect on the effect of E2 on vaginal weight” value ([1]; EM-652.HCl 10 mg/kg)?
The value was “complete reversal”.

And the “Reduction of the effect of E2” value ([1]; EM-652.HCl 10 mg/kg)?
The value was 50%.

And the “Prevention of E2-stimulated endometrial epithelial height” value [1, 5]?
The value was 93%.

And the “Reversal of the effect of E2 on uterine weight” value [1, 5]?
Its value is 87%.

And the “Inhibitory effect on E2-stimulated vaginal weight” value ([1]; EM-652.HCl up to 1 mg/kg)?
Its value is “no significant inhibitory effect”.

What about the “Inhibition of estrone-stimulated uterine weight” value ([2]; 1 μg daily oral) of the same molecule?
The value was 24%.

What about the “Inhibition of estrone-stimulated vaginal weight” value ([2]; 1 μg daily oral) of the same molecule?
The value was 10%.

And the “Inhibition of estrone-stimulated uterine weight” value ([2]; 3 μg daily oral)?
The value was 48%.

What about the “Inhibition of estrone-stimulated vaginal weight” value ([2]; 3 μg daily oral) of the same molecule?
Its value is 25%.

What about the “Inhibition of estrone-stimulated uterine weight” value ([2]; 10 μg daily oral) of the same molecule?
The value was 72%.

What about the “Inhibition of estrone-stimulated vaginal weight” value ([2]; 10 μg daily oral) of the same molecule?
The value was 53%.

What about the “Stimulatory effect on uterine weight” value [2, 6] of the same molecule?
The value was “no significant stimulatory effect”.

What about the “Stimulatory effect on vaginal weight” value [2, 6] of the same molecule?
Its value is “no significant stimulatory effect”.

And the “Serum ALP” value [3]?
The value was 78 ± 4 IU.

And the Serum cholesterol [3]?
Its Serum cholesterol is 0.98 ± 0.06 mmol/L.

And the Solid state stability (Solid state stability)?
The Solid state stability was “good solid state stability”.
